In brackets after ≈: the same amount, converted by molar mass. Each block holds one compound with its values, some of them ahead of it.
Tests used:
[1] = Kinetic solubility of compound at pH 2; assay type: physicochemical; conditions: buffer, read-out: Kinetic_solubility
[2] = Kinetic solubility of compound at pH 4.5; assay type: physicochemical; conditions: buffer, read-out: Kinetic_solubility
[3] = molecular target: T1, Alpha-2A adrenergic receptor (Homo sapiens) (UniProt P08913); experiment: Inhibition of alpha 2A adrenergic receptor (unknown origin) at 10 uM by CEREP analysis relative to control
T1 sequence (whole entry): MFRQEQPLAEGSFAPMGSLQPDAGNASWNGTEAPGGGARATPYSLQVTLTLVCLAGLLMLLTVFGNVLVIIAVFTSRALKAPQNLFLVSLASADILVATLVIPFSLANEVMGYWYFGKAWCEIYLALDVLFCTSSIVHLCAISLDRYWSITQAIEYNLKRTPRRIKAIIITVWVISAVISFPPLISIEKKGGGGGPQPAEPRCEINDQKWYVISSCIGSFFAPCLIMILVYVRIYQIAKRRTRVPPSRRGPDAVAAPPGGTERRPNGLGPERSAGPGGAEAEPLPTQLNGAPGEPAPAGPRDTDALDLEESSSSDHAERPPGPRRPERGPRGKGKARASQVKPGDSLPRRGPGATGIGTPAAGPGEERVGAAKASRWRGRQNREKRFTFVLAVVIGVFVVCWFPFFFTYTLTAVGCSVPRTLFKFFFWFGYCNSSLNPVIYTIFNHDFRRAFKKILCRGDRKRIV

hERG = hERG (Homo sapiens, UniProt Q12809); experiment: Inhibition of hERG at 10 uM by CEREP analysis relative to control; assay type: toxicity
[4] = molecular target: 5-hydroxytryptamine receptor 1B (Homo sapiens) (UniProt P28222); experiment: Inhibition of 5-HT1B receptor (unknown origin) at 10 uM by CEREP analysis relative to control
[5] = molecular target: 5-hydroxytryptamine receptor 2B (Homo sapiens) (UniProt P41595); experiment: Inhibition of 5-HT2B receptor (unknown origin) at 10 uM by CEREP analysis relative to control
Homo sapiens = species on record: Homo sapiens; experiment: Inhibition of sodium channel site 2 (unknown origin) at 10 uM by CEREP analysis relative to control
L-type calcium channel = L-type calcium channel (Homo sapiens, UniProt O60840+Q01668+Q13698+Q13936); experiment: Inhibition of Calcium channel L-type (unknown origin) at 10 uM by CEREP analysis relative to control; assay type: protein assay
[6] = molecular target: Sodium-dependent serotonin transporter (Homo sapiens) (UniProt P31645); experiment: Inhibition of SERT (unknown origin) at 10 uM by CEREP analysis relative to control
[7] = molecular target: cGMP-inhibited 3',5'-cyclic phosphodiesterase 3A (Homo sapiens) (UniProt Q14432); experiment: Inhibition of PDE3A (unknown origin) at 10 uM by CEREP analysis relative to control
[8] = molecular target: 3',5'-cyclic-AMP phosphodiesterase 4D (Homo sapiens) (UniProt Q08499); experiment: Inhibition of PDE4D2 (unknown origin) at 10 uM by CEREP analysis relative to control
[9] = Half life in female Balb/c mouse at 5 mg/kg, iv; assay type: ADME, organism-based; conditions: in vivo
[10] = Clearance in female Balb/c mouse at 5 mg/kg, iv; assay type: ADME, organism-based; conditions: in vivo
[11] = AUClast in Balb/c mouse at 10 mg/kg, po; assay type: ADME, organism-based; conditions: in vivo
[12] = Oral bioavailability in Balb/c mouse at 10 mg/kg; assay type: ADME, organism-based; conditions: in vivo
[13] = Half life in male Sprague-Dawley rat at 3 mg/kg, iv; assay type: ADME, organism-based; conditions: in vivo
[14] = Clearance in male Sprague-Dawley rat at 3 mg/kg, iv; assay type: ADME, organism-based; conditions: in vivo
[15] = AUClast in male Sprague-Dawley rat at 10 mg/kg, po; assay type: ADME, organism-based; conditions: in vivo
[16] = Oral bioavailability in male Sprague-Dawley rat at 10 mg/kg; assay type: ADME, organism-based; conditions: in vivo
[17] = Half life in male Beagle dog at 2 mg/kg, iv; assay type: ADME, organism-based, Canis lupus familiaris; conditions: in vivo
[18] = Clearance in male Beagle dog at 2 mg/kg, iv; assay type: ADME, organism-based, Canis lupus familiaris; conditions: in vivo
[19] = AUClast in male Beagle dog at 15 mg/kg, po; assay type: ADME, organism-based, Canis lupus familiaris; conditions: in vivo
[20] = Oral bioavailability in male Beagle dog at 15 mg/kg; assay type: ADME, organism-based, Canis lupus familiaris; conditions: in vivo
[21] = Stability in mouse hepatocytes measured for 127 mins; assay type: ADME, cell-based, Hepatocyte; conditions: 2.117 h
[22] = Stability in rat hepatocytes measured for 175 mins; assay type: ADME, cell-based, Hepatocyte; conditions: 2.917 h
[23] = Stability in dog hepatocytes; assay type: ADME, cell-based, Canis lupus familiaris, Hepatocyte
[24] = Stability in monkey hepatocytes measured for 75 mins; assay type: ADME, cell-based, Macaca mulatta, Hepatocyte; conditions: rhesus monkey, 1.25 h
[25] = Stability in human hepatocytes; assay type: ADME, cell-based, Hepatocyte
[26] = Volume of distribution in female Balb/c mouse at 5 mg/kg, iv; assay type: ADME, organism-based; conditions: in vivo
[27] = Volume of distribution in male Sprague-Dawley rat at 3 mg/kg, iv; assay type: ADME, organism-based; conditions: in vivo
[28] = Volume of distribution in male Beagle dog at 2 mg/kg, iv; assay type: ADME, organism-based, Canis lupus familiaris; conditions: in vivo
[29] = Dose-normalized AUC in male Sprague-Dawley rat at 10 mg/kg, po; assay type: ADME, organism-based; conditions: in vivo
[30] = Dose-normalized AUC in female Balb/c mouse at 10 mg/kg, po; assay type: ADME, organism-based; conditions: in vivo
[31] = Dose-normalized AUC in male Beagle dog at 15 mg/kg, po; assay type: ADME, organism-based, Canis lupus familiaris; conditions: in vivo
[32] = Oral bioavailability in female Balb/c mouse at 30 mg/kg; assay type: ADME, organism-based; conditions: in vivo
[33] = Oral bioavailability in male Sprague-Dawley rat at 30 mg/kg; assay type: ADME, organism-based; conditions: in vivo
[34] = Oral bioavailability in male Beagle dog at 30 mg/kg; assay type: ADME, organism-based, Canis lupus familiaris; conditions: in vivo
cells = conditions: Mus musculus, BaF3/TRP-Met, 72 h
BaF3 [35] = experiment: cells; conditions: Mus musculus, BaF3, 72 h
BaF3 [36] = experiment: Antitumor activity against mouse BaF3 cells harboring TPR-D1228N mutant cells allografted in athymic BALB/c nude mouse at 10 mg/kg, po bid treated for 10 days relative to control; assay type: functional; conditions: BaF3, 240 h, time 10 day, read-out: TGI

5-hydroxytryptamine receptor 2B (Homo sapiens), sequence (P41595 whole entry): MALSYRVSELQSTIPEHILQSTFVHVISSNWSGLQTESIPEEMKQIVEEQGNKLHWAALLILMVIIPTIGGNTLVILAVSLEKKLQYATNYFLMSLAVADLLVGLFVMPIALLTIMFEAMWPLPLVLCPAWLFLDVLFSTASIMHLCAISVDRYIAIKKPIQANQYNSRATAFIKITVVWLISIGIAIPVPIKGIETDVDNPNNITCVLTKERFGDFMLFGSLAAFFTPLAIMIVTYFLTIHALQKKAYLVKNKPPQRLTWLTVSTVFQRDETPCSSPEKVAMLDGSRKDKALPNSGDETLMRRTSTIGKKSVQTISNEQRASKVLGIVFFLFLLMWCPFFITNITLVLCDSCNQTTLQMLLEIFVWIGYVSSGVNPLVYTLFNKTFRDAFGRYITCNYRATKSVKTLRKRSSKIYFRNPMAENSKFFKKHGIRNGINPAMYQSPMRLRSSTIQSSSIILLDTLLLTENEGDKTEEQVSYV
5-hydroxytryptamine receptor 1B (Homo sapiens), sequence (P28222 whole entry): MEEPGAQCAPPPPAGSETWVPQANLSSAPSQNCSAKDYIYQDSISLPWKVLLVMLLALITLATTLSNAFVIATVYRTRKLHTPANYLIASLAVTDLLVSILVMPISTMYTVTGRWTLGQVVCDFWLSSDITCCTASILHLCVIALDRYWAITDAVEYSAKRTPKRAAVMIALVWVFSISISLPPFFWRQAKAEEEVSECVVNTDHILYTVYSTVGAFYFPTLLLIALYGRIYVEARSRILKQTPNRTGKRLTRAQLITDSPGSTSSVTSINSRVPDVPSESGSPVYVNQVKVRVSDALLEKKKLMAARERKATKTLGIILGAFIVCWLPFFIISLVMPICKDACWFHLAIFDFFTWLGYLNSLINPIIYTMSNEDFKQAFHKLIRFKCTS
3',5'-cyclic-AMP phosphodiesterase 4D (Homo sapiens), sequence (Q08499 whole entry): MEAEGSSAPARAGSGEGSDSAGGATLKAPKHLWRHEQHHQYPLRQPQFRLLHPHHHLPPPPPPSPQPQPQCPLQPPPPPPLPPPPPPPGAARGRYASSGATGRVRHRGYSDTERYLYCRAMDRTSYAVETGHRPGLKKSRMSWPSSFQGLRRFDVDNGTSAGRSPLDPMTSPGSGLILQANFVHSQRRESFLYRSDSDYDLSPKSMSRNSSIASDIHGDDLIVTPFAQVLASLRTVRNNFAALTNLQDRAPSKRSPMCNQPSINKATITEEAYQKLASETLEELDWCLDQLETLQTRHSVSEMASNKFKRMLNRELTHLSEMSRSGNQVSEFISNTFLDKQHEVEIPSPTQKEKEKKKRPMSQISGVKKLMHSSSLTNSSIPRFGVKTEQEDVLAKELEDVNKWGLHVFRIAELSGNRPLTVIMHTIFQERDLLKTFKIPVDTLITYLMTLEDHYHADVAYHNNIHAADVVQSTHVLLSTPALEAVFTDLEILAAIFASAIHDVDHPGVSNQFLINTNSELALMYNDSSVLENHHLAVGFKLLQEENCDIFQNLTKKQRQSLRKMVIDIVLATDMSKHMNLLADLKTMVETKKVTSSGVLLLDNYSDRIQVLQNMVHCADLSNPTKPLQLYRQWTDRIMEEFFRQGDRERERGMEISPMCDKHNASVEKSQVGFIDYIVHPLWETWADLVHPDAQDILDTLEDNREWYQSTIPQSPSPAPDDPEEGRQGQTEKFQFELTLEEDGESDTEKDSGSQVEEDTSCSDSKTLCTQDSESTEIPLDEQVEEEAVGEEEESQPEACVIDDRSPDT
hERG, sequence (Q12809 whole entry): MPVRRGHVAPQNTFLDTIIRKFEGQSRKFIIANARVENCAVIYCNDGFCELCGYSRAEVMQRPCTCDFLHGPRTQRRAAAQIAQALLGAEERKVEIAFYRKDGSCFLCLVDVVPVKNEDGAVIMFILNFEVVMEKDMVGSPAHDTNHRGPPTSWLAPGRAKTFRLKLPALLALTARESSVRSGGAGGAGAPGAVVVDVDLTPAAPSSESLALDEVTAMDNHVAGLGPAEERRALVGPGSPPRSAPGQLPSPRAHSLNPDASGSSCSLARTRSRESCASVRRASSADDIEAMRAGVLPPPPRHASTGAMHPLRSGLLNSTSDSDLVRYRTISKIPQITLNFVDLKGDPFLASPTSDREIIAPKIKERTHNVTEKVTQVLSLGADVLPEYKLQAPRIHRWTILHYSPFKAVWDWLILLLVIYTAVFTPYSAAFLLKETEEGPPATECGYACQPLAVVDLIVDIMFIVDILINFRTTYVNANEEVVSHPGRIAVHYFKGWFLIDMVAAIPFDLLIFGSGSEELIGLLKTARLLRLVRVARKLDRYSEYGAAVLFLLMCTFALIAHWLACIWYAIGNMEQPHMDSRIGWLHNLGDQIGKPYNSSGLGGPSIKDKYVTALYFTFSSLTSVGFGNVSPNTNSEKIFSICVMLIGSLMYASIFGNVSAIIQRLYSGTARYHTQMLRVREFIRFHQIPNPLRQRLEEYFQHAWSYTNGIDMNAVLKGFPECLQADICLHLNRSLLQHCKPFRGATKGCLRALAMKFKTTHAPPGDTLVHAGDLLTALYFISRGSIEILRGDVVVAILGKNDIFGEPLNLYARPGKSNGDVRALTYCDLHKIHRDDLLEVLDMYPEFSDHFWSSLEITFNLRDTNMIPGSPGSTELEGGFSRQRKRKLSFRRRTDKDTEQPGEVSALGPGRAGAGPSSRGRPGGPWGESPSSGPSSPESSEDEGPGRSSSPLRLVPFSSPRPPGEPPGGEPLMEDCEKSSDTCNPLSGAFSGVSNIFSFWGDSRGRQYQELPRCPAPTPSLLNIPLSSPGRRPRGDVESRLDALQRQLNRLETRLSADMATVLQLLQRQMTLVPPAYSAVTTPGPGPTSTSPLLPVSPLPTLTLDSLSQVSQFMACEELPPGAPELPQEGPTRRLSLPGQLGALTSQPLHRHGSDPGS
Sodium-dependent serotonin transporter (Homo sapiens), sequence (P31645 whole entry, looked up): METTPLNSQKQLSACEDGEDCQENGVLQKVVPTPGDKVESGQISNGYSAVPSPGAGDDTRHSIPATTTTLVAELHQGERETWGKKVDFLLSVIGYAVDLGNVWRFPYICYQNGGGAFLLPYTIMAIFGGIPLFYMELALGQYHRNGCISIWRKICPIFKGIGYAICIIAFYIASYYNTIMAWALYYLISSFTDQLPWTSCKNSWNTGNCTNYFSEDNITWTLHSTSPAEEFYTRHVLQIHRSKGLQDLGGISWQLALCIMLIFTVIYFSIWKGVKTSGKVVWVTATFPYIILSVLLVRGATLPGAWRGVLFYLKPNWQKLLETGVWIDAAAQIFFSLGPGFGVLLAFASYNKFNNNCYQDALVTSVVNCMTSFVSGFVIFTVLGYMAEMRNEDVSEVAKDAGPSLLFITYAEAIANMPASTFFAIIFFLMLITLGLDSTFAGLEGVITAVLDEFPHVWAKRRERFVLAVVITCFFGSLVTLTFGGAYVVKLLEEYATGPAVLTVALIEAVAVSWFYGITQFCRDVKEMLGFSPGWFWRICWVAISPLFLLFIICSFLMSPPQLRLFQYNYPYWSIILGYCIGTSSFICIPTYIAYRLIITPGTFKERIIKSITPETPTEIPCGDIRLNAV
cGMP-inhibited 3',5'-cyclic phosphodiesterase 3A (Homo sapiens), sequence (Q14432 whole entry): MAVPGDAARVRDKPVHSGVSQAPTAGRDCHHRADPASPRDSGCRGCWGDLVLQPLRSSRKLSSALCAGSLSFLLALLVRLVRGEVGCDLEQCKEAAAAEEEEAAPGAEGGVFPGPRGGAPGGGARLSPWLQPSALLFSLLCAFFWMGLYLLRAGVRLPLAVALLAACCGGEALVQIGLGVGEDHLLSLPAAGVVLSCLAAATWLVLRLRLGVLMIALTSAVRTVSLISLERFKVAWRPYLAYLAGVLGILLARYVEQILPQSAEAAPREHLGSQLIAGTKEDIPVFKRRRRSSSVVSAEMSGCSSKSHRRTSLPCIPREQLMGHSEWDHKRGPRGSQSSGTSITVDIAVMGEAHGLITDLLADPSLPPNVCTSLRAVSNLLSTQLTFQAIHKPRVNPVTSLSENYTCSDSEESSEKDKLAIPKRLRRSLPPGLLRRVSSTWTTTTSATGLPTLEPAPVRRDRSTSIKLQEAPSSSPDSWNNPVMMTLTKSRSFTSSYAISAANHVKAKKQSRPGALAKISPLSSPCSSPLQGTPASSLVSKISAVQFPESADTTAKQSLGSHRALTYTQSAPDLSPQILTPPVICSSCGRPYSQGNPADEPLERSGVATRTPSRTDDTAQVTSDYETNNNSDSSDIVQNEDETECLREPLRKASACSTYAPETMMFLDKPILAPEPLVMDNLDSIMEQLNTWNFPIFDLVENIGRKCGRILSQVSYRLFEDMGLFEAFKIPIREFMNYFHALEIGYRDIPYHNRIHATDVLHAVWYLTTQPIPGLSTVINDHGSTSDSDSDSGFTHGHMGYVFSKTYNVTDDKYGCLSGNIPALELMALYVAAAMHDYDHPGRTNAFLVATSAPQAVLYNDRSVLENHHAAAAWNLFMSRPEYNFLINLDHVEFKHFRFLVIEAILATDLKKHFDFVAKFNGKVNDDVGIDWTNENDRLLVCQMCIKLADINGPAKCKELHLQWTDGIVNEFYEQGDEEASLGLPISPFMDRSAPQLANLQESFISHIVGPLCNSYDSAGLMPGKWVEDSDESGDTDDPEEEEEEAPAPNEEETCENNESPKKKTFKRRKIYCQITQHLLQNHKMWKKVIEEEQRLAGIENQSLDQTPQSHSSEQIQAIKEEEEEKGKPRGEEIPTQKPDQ

solubility kinetic [1]: 279 µM (≈ 139 µg/mL)
solubility kinetic [2]: 12.7 µM (≈ 6.32 µg/mL)
inhibition [3]: 11%
inhibition [4]: 16%
inhibition [5]: 16%
inhibition (Homo sapiens): 25%
inhibition at 10 µM (L-type calcium channel): 6%
inhibition [6]: 10%
inhibition [7]: 34%
inhibition [8]: 31%
half-life [9]: 2.1 h
clearance [10]: 4.11 mL/min/kg
AUC(0-t) [11]: 8220 ng·h/mL
bioavailability [12]: 20%
half-life [13]: 3 h
clearance [14]: 4.8 mL/min/kg
AUC(0-t) [15]: 28200 ng·h/mL
bioavailability [16]: 61%
half-life [17]: 7.1 h
clearance [18]: 6.7 mL/min/kg
AUC(0-t) [19]: 7170 ng·h/mL
bioavailability [20]: 18%
Stability [21]: Stable
Stability [22]: Stable
Stability [23]: Stable
Stability [24]: Stable
Stability [25]: Stable
Vd [26]: 0.38 L/kg
Vd [27]: 0.68 L/kg
Vd [28]: 2.25 L/kg
AUC/dose [29]: 2040 ng.h/mL per mg/kg
AUC/dose [30]: 822 ng.h/mL per mg/kg
AUC/dose [31]: 464 ng.h/mL per mg/kg
bioavailability [32]: 13%
bioavailability [33]: 34%
bioavailability [34]: 8%
EC50 (cells): 0.064 µM
EC50 (BaF3 [35]): 0.04 µM
Compound: COc1cc2nccc(Oc3c(F)cc(NC(=O)c4cnccc4OC)cc3F)c2cc1OCCO
inhibition at 10 µM (hERG): 8%

solubility kinetic [1]: 279 µM (≈ 115 µg/mL)
solubility kinetic [2]: 17.5 µM (≈ 7.22 µg/mL)
Compound: CNC(=O)c1ccc(-c2cnc3ncc(Cc4ccc5ncccc5c4)n3n2)cc1F [CAPMATINIB]
inhibition in vivo at 10 mg/kg (BaF3 [36]): 17%

Source: ChEMBL document CHEMBL6182925 (J Med Chem, 2025)
